In brackets after ≈: the same amount, converted by molar mass. Where two headings read alike, the source gives them in different places. No end group written: not given here.
Legend:
[1] = system: P. aeruginosa PAO1; assay: microbe, parasite or virus in culture; conditions: for MIC: Pseudomonas aeruginosa; for MIC P. aeruginosa PAO1: supplement CSV; for MIC P. aeruginosa, 12.5% MHB / MIC P. aeruginosa, Full MHB: P. aeruginosa PAO1, 16–20 h at 37 °C; for MIC P. aeruginosa, 12.5% MHB: 12.5% Müller–Hinton medium; for MIC P. aeruginosa, Full MHB: full Müller–Hinton medium
In short: (§1)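 Read-out was visible growth after MTT addition, the MIC being the lowest inhibitory peptide concentration. Bacteria grown to log phase in LB were exposed in MH medium to peptide from 64 μg/mL in twofold dilutions for 15-18h at 37°C.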

[2] = system: A. baumannii ATCC19606; assay: microbe, parasite or virus in culture; conditions: for MIC: Acinetobacter baumannii; for MIC A. baumannii, 12.5% MHB / MIC A. baumannii, Full MHB: A. baumannii ATCC19606; for MIC A. baumannii ATCC19606: supplement CSV
In short: as §1

[3] = system: K. pneumoniae NCTC 418; assay: microbe, parasite or virus in culture; conditions: for MIC: Klebsiella pneumoniae; for MIC K. pneumoniae, 12.5% MHB / MIC K. pneumoniae, Full MHB: K. pneumoniae NCTC 418; for MIC K. pneumoniae NCTC418: supplement CSV
In short: as §1

[4] = system: S. aureus COL (MRSA); assay: microbe, parasite or virus in culture; conditions: for MIC: Staphylococcus aureus, MRSA; for MIC S. aureus COL (MRSA): supplement CSV; for MIC S. aureus, 12.5% MHB / MIC S. aureus, Full MHB: S. aureus COL (MRSA), 16–20 h at 37 °C; for MIC S. aureus, 12.5% MHB: 12.5% Müller–Hinton medium; for MIC S. aureus, Full MHB: full Müller–Hinton medium
In short: as §1

[5] = system: E. coli W3110; assay: microbe, parasite or virus in culture; conditions: for MIC: Escherichia coli; for MIC E. coli, 12.5% MHB / MIC E. coli, Full MHB: E. coli W3110; for MIC E. coli W3110: supplement CSV
In short: as §1

[6] = system: K. pneumoniae NCTC418; assay: Time-killing kinetic assay, K. pneumoniae; type: cell-based, Klebsiella pneumoniae; conditions: 8× MIC, full MHB pH 7.4, 0-6 h, n = 6
Method: (§2) Time-Killing Kinetic Assay
(§3) Single colonies of E. coli W3110 and K. pneumoniae NCTC418 were picked and grown overnight with shaking (180 rpm) in LB (Sigma-Aldrich, Buchs, Switzerland) medium 5 mL overnight at 37 °C. The overnight bacterial cultures were diluted to OD600 = 0.002 (2 × 10^6 CFU/mL) in fresh MHB medium. Stock solutions of AMPs in sterilized milliQ water were prepared in 1 mg/mL and were diluted to two times more than required concentration in fresh MHB (Sigma- Aldrich, Buchs, Switzerland) medium at pH 7.4. 100 μL of prepared bacteria solution in MHB and 100 μL of samples in MHB were mixed in a 96-well microtiter plate (TPP, untreated, Corning Incorporated, Kennebunk, USA). Untreated bacteria at 1 × 10^6 CFU/mL were used as a growth control. 96-well microtiter plates were incubated in 37 °C with shaking (180 rpm). Surviving bacteria were quantified at 0, 0.5, 1, 2, 4 and 6 h by plating 10 -fold dilutions of the sample in sterilized normal saline on LB agar plates. LB agar plates were incubated at 37 °C for 10 h, and the number of individual colonies was counted at each time point. The assay was performed in triplicate in a biosafety level 2 lab. […]

[7] = system: E. coli W3110; assay: Time-killing kinetic assay, E. coli; type: cell-based, Escherichia coli; conditions: 8× MIC, full MHB pH 7.4, 0-6 h, n = 6
Method: as §2, §3

[8] = system: P. aeruginosa PA14 4.13 (phoQ); conditions: for MIC P. aeruginosa PA14 4.13 (phoQ), 12.5% MHB / MIC P. aeruginosa PA14 4.13 (phoQ), full MHB: polymyxin B resistant strain, 16–20 h at 37 °C; for MIC P. aeruginosa PA14 4.13 (phoQ), 12.5% MHB: 12.5% MHB pH 7.4; for MIC P. aeruginosa PA14 4.13 (phoQ), full MHB: full MHB pH 7.4; for MIC P. aeruginosa PA14 4.13: supplement CSV
[9] = system: E. coli ribosome, U2506 of the 23S rRNA; assay: Ribosome footprinting (CMCT modification of U2506); type: binding; conditions: 1 μM peptide, 10.5 μM CMCT, purified E. coli ribosomes (5 pmol), 25 °C; primer extension, sequencing gel
Method: A 5 mL culture of E. coli MG1655 (WT-cells) was grown in LB overnight (220 rpm, 37 °C). One liter LB medium was inoculated, and bacteria were grown to OD = 0.6 (220 rpm. 37 °C); cells were centrifuged in centrifuge bottles, and the pellet was resuspended in ice-cold water and transferred in 50 mL falcon tubes. Falcon tubes were centrifuged, the supernatant was removed, the pellet was resuspended in 15 mL polysome buffer (TRIS/HCl pH 7.5 20 mM, NH4Cl 100 mM, MgCl2 10 mM, EDTA 0.5 mM, β-mercaptoethanol 60 mM), frozen dropwise in N2 (l), and stored at −80 °C. The cells were ground in CryoMil with the standard program (1 min precooling, 2 min grinding 5/s, 2 min cooling, 2 min grinding 5/s). The powder was transferred in 50 mL falcon tubes containing N2 (l) and stored at −80 °C. The lysates were thawed with a water bath (30 °C), put on ice, transferred to precooled Eppendorf tubes, and centrifuged (5000 g, 2 min, 4 °C). The clear lysate was transferred to new precooled tubes, centrifuged (14 000 g, 10 min, 4 °C), and the supernatant was transferred to new precooled tubes. 300 mL of clear lysate was loaded on a 10–50% sucrose gradient in CMCT buffer (K-borate buffer pH 8 80 mM, MgCl2 25 mM, NH4Cl 100 mM) and ultracentrifuged (3 h, 234 050 g, 4 °C). The fractions containing monosomes and polysomes were collected and ultracentrifuged overnight (16 h, 260 800 g, 4 °C). The supernatant was discarded, and the pellet was washed with ice-cold CMCT buffer. The ribosomes were resuspended in 100 μL CMCT buffer with a mini magnetic stirring bar and stored on ice. The concentration of ribosomes was measured in 1/200 dilution in water.
Ribosomes (5 pmol) were mixed with 8 μL of CMCT buffer, the compound of interest 1 μM, and water to a final volume of 20 μL in a precooled tube and incubated at 25 °C for 10 min. 20 μL of CMCT (10.5 μM) in water was added and incubated at 25 °C for 30 min. The reaction was stopped with 160 μL of EDTA (30 μM), and the samples were stored on ice.
160 μL portion of RNA resuspension buffer and 40 μL of 10% SDS were added, and the samples were vigorously resuspended. 400 μL of prewarmed acid phenol was added, and the samples were incubated on a thermomixer (5 min, 1200 rpm, 65 °C). The samples were put on ice for 5 min and centrifuged (5 min, 14 000 g, RT). The watery phase was transferred to a new precooled tube, 400 μL of phenol–chloroform–isoamyl alcohol (4 °C) was added, and the samples were mixed (5 min, 1200 rpm, RT). The samples were centrifuged again (5 min, 14 000g, RT), and the watery phase was transferred to another precooled tube. 34 μL of 3 M NaOAc pH 5.5, 0.8 μL of Glycoblue and 400 μL of isopropanol were added, and the samples were incubated for 3 h at −80 °C. The samples were then centrifuged (40 min, 21 000g, 4 °C), and the pellet was washed with ice-cold 70% EtOH. The residual liquid was removed, and the samples were dried (5 min, 37 °C). The samples were resuspended in 20 μL of water, the concentration was measured, and the samples were −80 °C.
Primers designed to probe the positions 2506 of the 23S rRNA (5-[sequence]-3′) were labeled with radioactive phosphate (γ^32 P-ATP). […] To prepare primers for one reaction, 1 μL of primer (0.3 μM), 0.4 μL of 5× PNK-buffer, 0.25 μL of water, 0.2 μL of γ^32 P-ATP, and 0.15 μL of T4 PNK were mixed and incubated at 37 °C.

[10] = 12.5% Müller–Hinton medium, 16–20 h at 37 °C
[11] = full Müller–Hinton medium, 16–20 h at 37 °C
[12] = 12.5% Müller–Hinton medium, 16–20 h at 37 °C, broth microdilution
[13] = full Müller–Hinton medium, 16–20 h at 37 °C, broth microdilution

| Compound | MIC P. aeruginosa PAO1 ([1]; full MH pH 7.4) | MIC S. aureus COL (MRSA) ([4]; 12.5% MH pH 7.4) | MIC P. aeruginosa, 12.5% MHB [1] | MIC P. aeruginosa, Full MHB [1] | MIC P. aeruginosa PAO1 ([1]; 12.5% MH pH 7.4) | MIC A. baumannii, 12.5% MHB [2, 10] | MIC A. baumannii, Full MHB [2, 11] | MIC A. baumannii ATCC19606 ([2]; 12.5% MH pH 7.4) | MIC A. baumannii ATCC19606 ([2]; full MH pH 7.4) | MIC K. pneumoniae, 12.5% MHB [3, 10] | MIC K. pneumoniae, Full MHB [3, 11] | MIC K. pneumoniae NCTC418 ([3]; 12.5% MH pH 7.4) | MIC K. pneumoniae NCTC418 ([3]; full MH pH 7.4) | MIC S. aureus, 12.5% MHB [4] | MIC S. aureus, Full MHB [4] | MIC S. aureus COL (MRSA) ([4]; full MH pH 7.4) | MIC E. coli, 12.5% MHB [5, 12] | MIC E. coli, Full MHB [5, 13] | MIC E. coli W3110 ([5]; 12.5% MH pH 7.4) | MIC E. coli W3110 ([5]; full MH pH 7.4) | other results |
| --- | --- | --- | --- | --- | --- | --- | --- | --- | --- | --- | --- | --- | --- | --- | --- | --- | --- | --- | --- | --- | --- |
| CC[C@H]1OC(=O)[C@H](C)[C@@H](O[C@H]2C[C@@](C)(OC)[C@@H](O)[C@H](C)O2)[C@H](C)[C@@H](O[C@@H]2O[C@H](C)C[C@H](N(C)C)[C@H]2O)[C@](C)(O)C[C@@H](C)CN(C)[C@H](C)[C@@H](O)[C@]1(C)O [AZM, azithromycin, reference compound] | 32 µg/mL (≈ 42.7 µM) | <0.5 µg/mL |  |  |  |  |  |  |  |  |  |  |  |  |  |  |  |  |  |  | MIC ([1]; PAO1, pH 7.4, read-out: MIC P. aeruginosa PAO1): 32 µg/mL (≈ 42.7 µM); MIC ([1]; PAO1, read-out: MIC P. aeruginosa, 12.5% MHB): 32 µg/mL (≈ 42.7 µM); MIC ([1]; PAO1, read-out: MIC P. aeruginosa, Full MHB): 32 µg/mL (≈ 42.7 µM); MIC ([2]; ATCC19606, pH 7.4, read-out: MIC A. baumannii ATCC19606, supplement CSV, 12.5% MH pH 7.4): 32 µg/mL (≈ 42.7 µM); MIC ([2]; ATCC19606, pH 7.4, read-out: MIC A. baumannii ATCC19606, supplement CSV, full MH pH 7.4): 4 µg/mL (≈ 5.34 µM); MIC ([2]; ATCC19606, read-out: MIC A. baumannii, 12.5% MHB, A. baumannii ATCC19606, 12.5% Müller–Hinton medium, 16–20 h at 37 °C): 32 µg/mL (≈ 42.7 µM); MIC ([2]; ATCC19606, read-out: MIC A. baumannii, Full MHB, A. baumannii ATCC19606, full Müller–Hinton medium, 16–20 h at 37 °C): 4 µg/mL (≈ 5.34 µM); MIC ([3]; NCTC418, pH 7.4, read-out: MIC K. pneumoniae NCTC418, supplement CSV, 12.5% MH pH 7.4): 1 µg/mL (≈ 1.34 µM); MIC ([3]; NCTC418, pH 7.4, read-out: MIC K. pneumoniae NCTC418, supplement CSV, full MH pH 7.4): < 0.5 µg/mL; MIC ([3]; NCTC418, read-out: MIC K. pneumoniae, 12.5% MHB, K. pneumoniae NCTC 418, 12.5% Müller–Hinton medium, 16–20 h at 37 °C): 1 µg/mL (≈ 1.34 µM); MIC ([3]; NCTC418, read-out: MIC K. pneumoniae, Full MHB, K. pneumoniae NCTC 418, full Müller–Hinton medium, 16–20 h at 37 °C): < 0.5 µg/mL; MIC ([4]; pH 7.4, read-out: MIC S. aureus COL (MRSA)): < 0.5 µg/mL; MIC ([4]; read-out: MIC S. aureus, 12.5% MHB): < 0.5 µg/mL; MIC ([4]; read-out: MIC S. aureus, Full MHB): < 0.5 µg/mL; MIC ([5]; W3110, pH 7.4, read-out: MIC E. coli W3110, supplement CSV, 12.5% MH pH 7.4): 2 µg/mL (≈ 2.67 µM); MIC ([5]; W3110, pH 7.4, read-out: MIC E. coli W3110, supplement CSV, full MH pH 7.4): < 0.5 µg/mL; MIC ([5]; W3110, read-out: MIC E. coli, 12.5% MHB, E. coli W3110, 12.5% Müller–Hinton medium, 16–20 h at 37 °C, broth microdilution): 2 µg/mL (≈ 2.67 µM); MIC ([5]; W3110, read-out: MIC E. coli, Full MHB, E. coli W3110, full Müller–Hinton medium, 16–20 h at 37 °C, broth microdilution): < 0.5 µg/mL; Killing profile against K. pneumoniae [6]: acted bacteriostatically; Killing profile against E. coli [7]: acted bacteriostatically |
| VDKPPYLPRPRPPRRIYNR [sr14Nterm-Onc] (VDKPPYLPRPRPPRRIYNR-NH2; also: residues 1-14 stereorandomized (1:1 L/D mixture)) [oncocin with the essential 14-residue N-terminus stereorandomized] | >64 µg/mL | >64 µg/mL | > 16 µg/mL | > 64 µg/mL | >16 µg/mL | 16 µg/mL | 64 µg/mL | 16 µg/mL | 64 µg/mL | > 16 µg/mL | > 64 µg/mL | >16 µg/mL | >64 µg/mL | >64 / >64 μg/mL | >64 / >64 μg/mL | >64 µg/mL | 4 µg/mL | 64 µg/mL | 4 µg/mL | 64 µg/mL | MIC P. aeruginosa PA14 4.13 (phoQ), 12.5% MHB [8]: 32 µg/mL; MIC P. aeruginosa PA14 4.13 (phoQ), full MHB [8]: > 64 µg/mL; MIC P. aeruginosa PA14 4.13 ([8]; 12.5% MH pH 7.4): 32 µg/mL; MIC P. aeruginosa PA14 4.13 ([8]; full MH pH 7.4): >64 µg/mL; Protection of U2506 of 23S rRNA from CMCT modification (band at C2507) [9]: did not protect U2506 from CMCT modification |
| VDKPPYLPRPRPPRRIYNR [sr-Onc] (VDKPPYLPRPRPPRRIYNR-NH2; also: all 19 residues stereorandomized (1:1 L/D mixture)) [fully stereorandomized oncocin] | >64 µg/mL | >64 µg/mL | 8 µg/mL | > 64 µg/mL | 8 µg/mL | 8 µg/mL | 32 µg/mL | 8 µg/mL | 32 µg/mL | > 16 µg/mL | > 64 µg/mL | >16 µg/mL | >64 µg/mL | >64 / >64 μg/mL | >64 / >64 μg/mL | >64 µg/mL | 8 µg/mL | 32 µg/mL | 8 µg/mL | 32 µg/mL | MIC P. aeruginosa PA14 4.13 (phoQ), 12.5% MHB [8]: 16 µg/mL; MIC P. aeruginosa PA14 4.13 (phoQ), full MHB [8]: > 64 µg/mL; MIC P. aeruginosa PA14 4.13 ([8]; 12.5% MH pH 7.4): 16 µg/mL; MIC P. aeruginosa PA14 4.13 ([8]; full MH pH 7.4): >64 µg/mL; Protection of U2506 of 23S rRNA from CMCT modification (band at C2507) [9]: did not protect U2506 from CMCT modification |
